Entries after “also recorded” stand apart in the source; their conditions may differ.
Key:
Huh7 cells = assay: LDH release from Huh7 cells; format: cell-based, human; details: Huh7, 16 h exposure
Sgp130FC mice = Sgp130FC mice treated with Compound 1; format: in vivo; details: 7.5 mg/kg ip twice/week, four weeks
Description: Sgp130FC mice were injected (ip) with Compound 1 for four weeks (7.5 mg/kg, twice/week). FIGS. 6A-6B show the qRT-PCR analysis of miR-122 levels in plasma (6A), and in the livers (6B) after 4 weeks treatment with saline (as a control) and Compound 1. MicroRNA-18 was used as a negative control and its plasma and liver levels were not affected following treatment with Compound 1. The effect seen on this microRNA in FIG. 6A is not significant compared to the significant effect seen on miR-122.
Compound 1 and AntagomiR injections to mice. C57BL/6 male mice, 7-8 weeks old, or Sgp130FC, 9-month-old male mice, were injected i.p. with 7.5 mg/kg Compound 1 dissolved in saline and 3% DMSO. Saline was injected as control. Mice were hydrodynamic tail vain injected with antagomiR-122 or antagomiR-control (negative control) (5 μg/mouse in 1.5 ml saline). Mice were sacrificed according to the legend of the figure describing the experimental results and the livers, white adipose and skeletal muscle tissues were frozen in liquid nitrogen or in OCT embedded frozen blocks, for further RNA and histologic analysis. AntagomiRs were obtained from Sigma Aldrich, see Table 3.

RORα = target: T1, RORα (Homo sapiens, UniProt P35398); assay: RORα activity by luciferase reporter (miR-122 promoter) in Huh-7 cells; format: cell-based
T1 construct: endogenous in cells; host or cells: Huh-7 (Huh7) human hepatocellular carcinoma cells
T1 sequence (P35398 1-523): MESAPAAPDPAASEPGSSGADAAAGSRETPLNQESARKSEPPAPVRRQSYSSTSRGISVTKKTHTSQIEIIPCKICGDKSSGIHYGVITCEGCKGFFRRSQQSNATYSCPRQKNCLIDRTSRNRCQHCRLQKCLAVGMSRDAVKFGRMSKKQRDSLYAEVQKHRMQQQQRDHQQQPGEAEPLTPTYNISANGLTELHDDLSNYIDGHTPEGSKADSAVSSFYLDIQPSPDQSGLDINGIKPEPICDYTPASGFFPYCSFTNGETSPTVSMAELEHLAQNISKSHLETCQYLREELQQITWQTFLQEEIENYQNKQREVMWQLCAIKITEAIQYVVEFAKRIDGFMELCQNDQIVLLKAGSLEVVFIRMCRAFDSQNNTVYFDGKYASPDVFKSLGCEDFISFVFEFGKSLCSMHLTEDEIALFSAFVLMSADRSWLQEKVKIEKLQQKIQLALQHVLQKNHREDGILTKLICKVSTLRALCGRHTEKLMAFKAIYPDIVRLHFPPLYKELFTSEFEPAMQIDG
Description: Huh-7 cells were transfected with a luciferase reporter plasmid containing the miR-122 promoter (extends to −900 from the transcription start site) with intact wild-type (WT) RORα response element (RORE) or mutated RORE (mut). The cells were treated with Compound 1 one day (24 hours) post-transfection at the indicated concentrations. Luciferase expression was measured after 24 hours of treatment and normalized to Renilla Luciferase activity expressed from a co-transfected pRL plasmid. The pRL Vector, which provides constitutive expression of Renilla luciferase, was used in combination with a firefly luciferase vector to co-transfect cells. Expression of Renilla luciferase provides an internal control value to which expression of the experimental firefly luciferase reporter gene may be normalized.
Luciferase assay. For Luciferase assays, cells grown in 24 well plates were co-transfected with a luciferase reporter plasmid (50 ng) and 1 ng of Renilla Luciferase vector (PRL, Promega) using the TransIT-LT 1 (Mirus) transfection reagent (MIR 2300, Madison, WI). Firefly and Renilla luciferase activity was assessed using the Dual Luciferase Reporter Assay system (Promega). Readings were taken in triplicates on a Mithras LB 940 Luminometer (Berthold Technologies). […]
(§1) Following transfections, the cells were lysed with passive lysis buffer (Cat #E1941; Promega), shaking for 20 min at RT and transferred into appropriate 96-well plate. Firefly and Renilla luciferase activity was assessed using the Dual Luciferase Reporter Assay system (Cat #E1910; Promega) on a luminometer Mithras 2000 (Centro XZ, LB960, Berthold Technologies, Bad Wildbad, Germany). […] Readings were taken in triplicate.
as §1, with “room temperature (RT)” for “RT”, “into the” for “into”, “triplicates. […]” for “triplicate.”
After transfections, the cells were lysed with passive lysis buffer (catalog no. E1941, Promega), shaken for 20 minutes at room temperature, and transferred into the appropriate 96-well plate. Firefly and Renilla luciferase activity was assessed using the Dual Luciferase Reporter Assay system (catalog no. E1910, Promega) on a luminometer Mithras 2000 (Centro XZ, LB960; Berthold Technologies, Bad Wildbad, Germany). […] Readings were taken in triplicate.

O=C1Nc2cc(C(=O)N3CCC(Cc4ccccc4)CC3)ccc2Nc2ccccc21 [Compound 1]
Toxicity to the cells as measured by LDH release (Huh7 cells): no apparent toxicity
Liver and muscle triglyceride levels (Sgp130FC mice): reduces liver and muscle triglyceride levels
MicroRNA-18 plasma and liver levels (negative control) (Sgp130FC mice): not affected
miR-122 expression (plasma, liver) (Sgp130FC mice): increases miR-122 expression
Induction of MIR122 promoter, compared with screened set and SR1078 (RORα; Huh7, overnight, 1 μM tested compounds, 10 μM SR1078): most potent
Luciferase expression from miR-122 promoter with mutated RORE (RORα; Huh-7, mutated RORE): negates activity; also recorded: no activity; also recorded: no induction
Luciferase expression from miR-122 promoter with WT RORE (RORα; Huh-7, wild-type RORE, 24 hours of treatment): dose-dependent increase; also recorded: induces expression of RORα-regulated luciferase; also recorded: increase expression of MIR122 promoter activity
